Experimental data reported in EP2508526A1, “Spiroalkene carboxamide derivatives and their use as chemokine receptor modulators” (Ares Trading SA, priority 2011, dated 2012).

Molecular target: T1, hCCR2b (Homo sapiens, UniProt P41597)
T1 sequence (P41597 1-360 isoform P41597-2): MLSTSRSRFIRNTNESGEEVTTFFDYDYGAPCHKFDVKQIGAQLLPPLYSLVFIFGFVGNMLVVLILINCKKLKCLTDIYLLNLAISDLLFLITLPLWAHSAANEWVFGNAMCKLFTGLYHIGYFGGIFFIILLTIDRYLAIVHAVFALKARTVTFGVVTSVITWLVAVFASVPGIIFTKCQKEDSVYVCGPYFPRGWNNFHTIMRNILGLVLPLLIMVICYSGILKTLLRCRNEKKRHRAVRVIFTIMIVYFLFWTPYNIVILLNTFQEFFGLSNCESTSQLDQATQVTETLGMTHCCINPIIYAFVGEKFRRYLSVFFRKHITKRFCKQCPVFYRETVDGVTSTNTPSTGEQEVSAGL
Assay: CCR2 binding assay ([125I]MCP-1, SPA, CHO cell membranes)
Design: expressed in transfected cells; host or cells: CHO cells (membrane preparation)
Conditions: membranes from CHO cells expressing hCCR2b, 50 pM [125I]MCP-1; read-out: Binding hCCR2 (Ki)
Experimental: Membranes were prepared from CHO cells expressing mCCR2b or hCCR2b for use in ligand binding studies. Cells were suspended in 50mM Tris-HCL, pH 7.4, 2 mM EDTA, 250 mM Sucrose and 1x Complete EDTA-free protease inhibitor cocktail (Roche) (Buffer A), and disrupted at 4°C by N2 decompression using a cell disruption bomb (Parr Instrument). Following centrifugation at 200 RCF for 10 min at 4°C, the supernatant was suspended in buffer A and centrifuged again at 19000 RPM (RCSC rotor SS34 code 05 Sorvall Instruments DUPONT) for 90 min at 4°C. The pellet was then suspended in 10 mM HEPES, pH 7.4, 1 mM EDTA, 250 mM Sucrose, and 1x Complete EDTA-free protease inhibitor cocktail (Buffer B) and homogenized using a potter. Membranes were flash frozen in liquid N2 and stored at -80°C. [125I] Monocyte Chemoattractant Protein -1 (MCP-1) (25µCi; Perkin Elmer) was added to test compounds in DMSO (1% final). Membranes and WGA SPA beads (GE Healthcare) were added to give a final volume of 100 µl in 96-well plates with assay concentrations of 50 pM or 100 pM [125I]Monocyte Chemoattractant Protein -1 (respectively for hCCR2b or mCCR2b), 50 mM HEPES, pH 7.4, 5 mM MgCl2, 1 mM CaCl2, 0.1% BSA, 1-5 µg/well of membranes and 100 µg/well of WGA SPA beads. Binding was performed for 90 min at RT with strong agitation of speed 5 (Heidolph Titramax 100 SCITEC) and bound radioactivity was measured on a PerkinElmer 1450 MicroBeta counter. Specific binding was calculated by subtracting remaining radioactivity in the presence of 1000-fold excess of unlabeled compound. Binding data were analyzed using the Genedata Screener® software.

Compound	Ki [nM]
CC1=C(C(=O)N2CCc3ccc(C(F)(F)F)cc3C2)C2(CCN(C3CCN(C)CC3)CC2)OC1=O [Compound 38, 3-methyl-8-(1-methylpiperidin-4-yl)-4-{[7-(trifluoromethyl)-3,4-dihydroisoquinolin-2(1H)-yl]carbonyl}-1-oxa-8-azaspiro[4.5]dec-3-en-2-one]	100 to 500
CC1=C(C(=O)N2CCc3ccc(C(F)(F)F)cc3C2)C2(CCN(C3CCCS(=O)(=O)C3)CC2)OC1=O (stereo not shown) [Compound 39, 8-(1,1-dioxidotetrahydro-2H-thiopyran-3-yl)-3-methyl-4-{[7-(trifluoromethyl)-3,4-dihydroisoquinolin-2(1H)-yl]carbonyl}-1-oxa-8-azaspiro[4.5]dec-3-en-2-one]	50 to 100
CC1=C(C(=O)N2CCc3ncc(C(F)(F)F)cc3C2)C2(CCN(C3CCC(O)CC3)CC2)OC1=O (stereo not shown) [Compound 45, 8-(4-hydroxycyclohexyl)-3-methyl-4-{[3-(trifluoromethyl)-7,8-dihydro-1,6-naphthyridin-6(5H)-yl]carbonyl}-1-oxa-8-azaspiro[4.5]dec-3-en-2-one]	< 50
CC1=C(C(=O)N2CCc3ncc(C(F)(F)F)cc3C2)C2(CCN(CC3CCOC3)CC2)OC1=O (stereo not shown) [Compound 46, 3-methyl-8-(tetrahydrofuran-3-ylmethyl)-4-{[3-(trifluoromethyl)-7,8-dihydro-1,6-naphthyridin-6(5H)-yl]carbonyl}-1-oxa-8-azaspiro[4.5]dec-3-en-2-one]	< 50
CC1=C(C(=O)N2CCc3ncc(C(F)(F)F)cc3C2)C2(CCN(C3CCOC(C)C3)CC2)OC1=O (stereo not shown) [Compound 47, 3-methyl-8-(2-methyltetrahydro-2H-pyran-4-yl)-4-{[3-(trifluoromethyl)-7,8-dihydro-1,6-naphthyridin-6(5H)-yl]carbonyl}-1-oxa-8-azaspiro[4.5]dec-3-en-2-one]	< 50
CCN1CCC2(CC1)OC(=O)C(C)=C2C(=O)NCC(=O)Nc1cccc(C(F)(F)F)c1 [Compound 56, 8-ethyl-3-methyl-2-oxo-N-(2-oxo-2-{[3-(trifluoromethyl)phenyl]amino}ethyl)-1-oxa-8-azaspiro[4.5]dec-3-ene-4-carboxamide]	< 50
CCN1CCC2(CC1)OC(=O)C(C)=C2C(=O)N1CCN(CCc2ccc(F)cc2)CC1 [Compound 58, 8-ethyl-4-({4-[2-(4-fluorophenyl)ethyl]piperazin-1-yl}carbonyl)-3-methyl-1-oxa-8-azaspiro[4.5]dec-3-en-2-one]	100 to 500
COc1ccccc1CCN1CCC2(CC1)OC(=O)C(C)=C2C(=O)N1CCN(c2cccc(C(F)(F)F)c2)CC1 [Compound 63, 8-[2-(2-methoxyphenyl)ethyl]-3-methyl-4-({4-[3-(trifluoromethyl)phenyl]piperazin-1-yl}carbonyl)-1-oxa-8-azaspiro[4.5]dec-3-en-2-one]	< 50
CC1=C(C(=O)NCc2ccc(C(F)(F)F)cc2)C2(CCN(C(C)C)CC2)OC1=O [Compound 64, 8-isopropyl-3-methyl-2-oxo-N-[4-(trifluoromethyl)benzyl]-1-oxa-8-azaspiro[4.5]dec-3-ene-4-carboxamide]	500 to 2000
CCN1CCC2(CC1)OC(=O)C(C)=C2C(=O)Nc1cnn(-c2ccc(C(F)(F)F)cc2)c1 [Compound 67, 8-ethyl-3-methyl-2-oxo-N-{1-[4-(trifluoromethyl)phenyl]-1H-pyrazol-4-yl}-1-oxa-8-azaspiro[4.5]dec-3-ene-4-carboxamide]	500 to 2000
CC1=C(C(=O)NCC(=O)Nc2cccc(C(F)(F)F)c2)C2(CCN(C3CCOCC3)CC2)OC1=O [Compound 69, 3-methyl-2-oxo-N-(2-oxo-2-{[3-(trifluoromethyl)phenyl]amino}ethyl)-8-(tetrahydro-2H-pyran-4-yl)-1-oxa-8-azaspiro[4.5]dec-3-ene-4-carboxamide]	< 50

Further lines, results first:

Ki [nM]	Compound
< 50	CCN1CCC2(C1)OC(=O)C(C)=C2C(=O)N1CCc2ccc(C(F)(F)F)cc2C1 (stereo not shown) [Compound 42, 7-ethyl-3-methyl-4-{[7-(trifluoromethyl)-3,4-dihydroisoquinolin-2(1H)-yl]carbonyl}-1-oxa-7-azaspiro[4.4]non-3-en-2-one]
100 to 500	CCN1CCC2(CC1)OC(=O)C(C)=C2C(=O)N1CCc2ccc(C#N)cc2C1 [Compound 49, 2-[(8-ethyl-3-methyl-2-oxo-1-oxa-8-azaspiro[4.5]dec-3-en-4-yl)carbonyl]-1,2,3,4-tetrahydroisoquinoline-7-carbonitrile]
< 50	CCN1CCC2(CC1)OC(=O)C(C)=C2C(=O)N1CCc2ccc(Cl)cc2C1 [Compound 50, 4-[(7-chloro-3,4-dihydroisoquinolin-2(1H)-yl)carbonyl]-8-ethyl-3-methyl-1-oxa-8-azaspiro[4.5]dec-3-en-2-one]
500 to 2000	CCN1CCC2(CC1)OC(=O)C(C)=C2C(=O)N1CCc2cccc(C(F)(F)F)c2C1 [Compound 51, 8-ethyl-3-methyl-4-{[8-(trifluoromethyl)-3,4-dihydroisoquinolin-2 (1H)-yl]carbonyl}-1-oxa-8-azaspiro[4.5]dec-3-en-2-one]
500 to 2000	CCN1CCC2(CC1)OC(=O)C(C)=C2C(=O)N1CCCN(c2cccc(F)c2)CC1 [Compound 52, 8-ethyl-4-{[4-(3-fluorophenyl)-1,4-diazepan-1-yl]carbonyl}-3-methyl-1-oxa-8-azaspiro[4.5]dec-3-en-2-one]
100 to 500	CCN1CCC2(CC1)OC(=O)C(C)=C2C(=O)N1CCc2ccc(F)cc2C1 [Compound 53, 8-ethyl-4-[(7-fluoro-3,4-dihydroisoquinolin-2(1H)-yl)carbonyl]-3-methyl-1-oxa-8-azaspiro[4.5]dec-3-en-2-one]
< 50	CCN1CCC2(CC1)OC(=O)C(C)=C2C(=O)N1CCc2cc(C(F)(F)F)ccc2C1 [Compound 54, 8-ethyl-3-methyl-4-{[6-(trifluoromethyl)-3,4-dihydroisoquinolin-2 (1H)-yl]carbonyl}-1-oxa-8-azaspiro[4.5]dec-3-en-2-one]
100 to 500	CCN1CCC2(CC1)OC(=O)C(C)=C2C(=O)N1CCC(c2cccc(C(F)(F)F)c2)C1 (stereo not shown) [Compound 55, 8-ethyl-3-methyl-4-({3-[3-(trifluoromethyl)phenyl]pyrrolidin-1-yl}carbonyl)-1-oxa-8-azaspiro[4.5]dec-3-en-2-one]
500 to 2000	CCN1CCC2(CC1)OC(=O)C(C)=C2C(=O)N1CCC(Nc2cccc(C(F)(F)F)c2)CC1 [Compound 59, 8-ethyl-3-methyl-4-[(4-{[3-(trifluoromethyl)phenyl]amino}piperidin-1-yl)carbonyl]-1-oxa-8-azaspiro[4.5]dec-3-en-2-one]
50 to 100	CCN1CCC2(CC1)OC(=O)C(C)=C2C(=O)N1CCN(c2cncc(C(F)(F)F)c2)CC1 [Compound 60, 8-ethyl-3-methyl-4-({4-[5-(trifluoromethyl)pyridin-3-yl]piperazin-1-yl}carbonyl)-1-oxa-8-azaspiro[4.5]dec-3-en-2-one]
< 50	COc1ccccc1CCN1CCC2(CC1)OC(=O)C(C)=C2C(=O)N1CCc2ccc(C(F)(F)F)cc2C1 [Compound 65, 8-[2-(2-methoxyphenyl)ethyl]-3-methyl-4-{[7-(trifluoromethyl)-3,4-dihydroisoquinolin-2(1H)-yl]carbonyl}-1-oxa-8-azaspiro[4.5]dec-3-en-2-one]
500 to 2000	CCN1CCC2(CC1)OC(=O)C(C)=C2C(=O)N1CCN(c2cccc(C)c2)CC1 [Compound 68, 8-ethyl-3-methyl-4-{[4-(3-methylphenyl)piperazin-1-yl]carbonyl}-1-oxa-8-azaspiro[4.5]dec-3-en-2-one]
< 50	CCN1CCC2(CC1)OC(=O)C(C)=C2C(=O)N1CCN(c2cc(C(F)(F)F)ccn2)CC1 [Compound 70, 8-ethyl-3-methyl-4-({4-[4-(trifluoromethyl)pyridin-2-yl]piperazin-1-yl}carbonyl)-1-oxa-8-azaspiro[4.5]dec-3-en-2-one]
< 50	CCN1CCC2(CC1)OC(=O)C(C)=C2C(=O)N1C[C@@H]2C[C@H]1CN2c1cc(C(F)(F)F)ccn1 [Compound 71, 8-ethyl-3-methyl-4-({(1S,4S)-5-[4-(trifluoromethyl)pyridin-2-yl]-2,5-diazabicyclo[2.2.1]hept-2-yl}carbonyl)-1-oxa-8-azaspiro[4.5]dec-3-en-2-one]
